Laboratory results taken from PMC12091851, “Replacing a Cereblon Ligand by a DDB1 and CUL4 Associated Factor 11 (DCAF11) Recruiter Converts a Selective Histone Deacetylase 6 PROTAC into a Pan‐Degrader” (Chemmedchem, 2025).

Tests used:
MM.1S cells = experiment: Cell cycle analysis by PI staining and flow cytometry; format: cell-based, human; conditions: 10 μM, 48 h
Procedure: GraphPad Prism (GraphPad Software). […]
Biotech), resuspended in 1 mL EtOH/D PBS (7/3 v/v), and fixed for 30 min at 4 °C. The samples were rehydrated with DPBS and treated with 5 µg /mL RNAse ( Catalog# EN0531 , ThermoFisher Scientific Inc.) for 15 min at room temperature. The staining was performed with 3 µM propidium iodide (in DPBS) for 15 min at room temperature and analyzed by flow cytometry ( Guava easyCyteTM, Luminex, […]
Lakes, NJ, USA), using the Watson Pragmatic algorithm.[6] GraphPad Prism (GraphPad Software) was used for normalization, statistical analysis, and bar graph creation. Significance testing was performed with a one-way analysis of variance (ANOVA). Dunnett’s post-hoc test was employed to obtain […]
Final DMSO concentration was 0.1%.
Staining was performed with
Fluorescence was measured by flow cytometry (Guava® easyCyteTM, Luminex, Austin, Texas). GraphPad Prism (GraphPad Software) was used for normalization, statistical analysis, and bar graph creation. Significance testing was performed with a one-way analysis of variance (ANOVA).
Subsequently, cells were harvested and […]
After 30 minutes of incubation at […]
Dunnett’s post-hoc test was employed

HDAC4 = HDAC4 (Homo sapiens, UniProt P56524); experiment: HDAC enzyme inhibition assay; format: biochemical; parameters: purchased BPS Bioscience 50004
Procedure: Bio-Rad) to Immobilon-FL PVDF membranes (Catalog# IPFL00005, Mill ipore Merck, Burlington, MA, USA) at 1.0 A for 30 min and treated with 5% milk-powder solution for 1 h at room temperature […]
Signaling Technology) antibody solutions in 1:1000 –1:8000 dilutions at 4 °C overnight. […]
Significance testing was performed with a one -way analysis […]
compared to a reference mean value.
2.7. HDAC Enzyme Inhibition Assay […]
In vitro inhibitory activities against HDAC4 were measured using a previously published protocol with slight modifications. For test compounds and controls, serial dilutions of the respective DMSO stock solution in DMSO were prepared, and 1.0 μL /well of this serial dilution were transferred […]
into OptiPlate-96 black microplates (PerkinElmer, Waltham, […], USA). A volume of 4 µL/well assay […]
BSA) was added. In the case of HDAC1, 2, and 6, a volume of 35 μL/well of the fluorogenic substrate […]
The total assay volume of 50 μL (max. 2 % DMSO) was incubated at 37 °C for 90 min. Subsequently, 50 μL /well of trypsin (0.4 mg/mL) in trypsin buffer (50 mM Tris−HCl, pH 8.0, 100 mM NaCl) was added, followed by additional 30 min of incubation at […]
OPTIMA microplate reader (BMG labtech, Ortenburg, Germany). The half maximal inhibitory concentration (IC50) was determined by plotting dose response curves and nonlinear regression with GraphPad Prism (GraphPad Software).
2.8. […]

HDAC4, sequence (P56524 627-1084 limits assumed): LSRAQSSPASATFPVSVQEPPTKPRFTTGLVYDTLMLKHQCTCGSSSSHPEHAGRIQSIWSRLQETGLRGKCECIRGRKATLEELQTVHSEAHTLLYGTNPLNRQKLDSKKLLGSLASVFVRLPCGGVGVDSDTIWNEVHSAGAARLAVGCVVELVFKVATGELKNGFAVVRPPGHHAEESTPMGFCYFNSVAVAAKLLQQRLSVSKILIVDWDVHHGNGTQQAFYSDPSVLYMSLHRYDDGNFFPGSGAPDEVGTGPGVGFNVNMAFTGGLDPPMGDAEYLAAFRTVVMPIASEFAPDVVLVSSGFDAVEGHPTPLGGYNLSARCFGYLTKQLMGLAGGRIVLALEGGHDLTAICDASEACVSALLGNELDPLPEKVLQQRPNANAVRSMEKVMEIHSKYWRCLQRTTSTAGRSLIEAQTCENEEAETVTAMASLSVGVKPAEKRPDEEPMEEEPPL

IC50 (HDAC4) [µM] | Structure (SMILES) | effect on cell cycle phases (MM.1S cells)
12.4 ± 1.5 | O=C(CCCCCCNC(=O)c1ccc(NC(=O)CCCCCCCCCCCN(C(=O)CCl)C(C(=O)NCc2ccccc2)c2ccc(Cl)c(Cl)c2)cc1)NO (stereo not shown) [Compound 1j] | increase of the sub G1 phase, while the S phase was decreased
3.26 ± 0.08 | O=C(CCCCCCNC(=O)c1ccc(N(C(=O)CCl)C(C(=O)NCc2ccccc2)c2ccc(Cl)c(Cl)c2)cc1)NO (stereo not shown) [Compound 2] | increase of the sub G1 phase, while the S phase was decreased
